Several values for one entry are separate records, joined by “and”; a condition that tells them apart may be missing. Equal values may be shown once.
Tested on: 439559-082-T-J2-PDC spheroid viability
Test: Anticancer human tumor 439559-082-T-J2-PDC patient-derived colon adenocarcinoma cell line growth inhibition [POLQ]
Conditions: spheroids with HUVEC and MSC; for viability, T/C: stronger effect = lower value
Method: Multicellular complex tumor spheroid response to Polymerase (POL) inhibitors (novobiocin, ART-558, RP6685) in combination with a variety of drugs and investigational agents in selected tumor cell lines
The POL inhibitors (novobiocin, ART-558, and RP6685) were evaluated both individually and in combination with standard of care and investigational anticancer small molecules within a complex spheroid model of solid tumors. . Complex spheroids include a stromal component modeled by human endothelial cells (HUVEC) and fibroblasts modeled by human mesenchymal stem cells (MSCs). The concentration ranges selected for each drug and investigational agent were based upon clinically achievable concentrations if the clinical Cmax of the agent was known.
Compounds. The drugs and investigational agents: novobiocin (NSC847541), ART-558 (NSC835418), RP-6685 (NSC848927), peposertib (NSC802822), ceralasertib (NSC780249), elimusertib (NSC800525), camonsertib (NSC841442), AZD-1390 (NSC803789), olaparib (NSC753686), talazoparib (NSC767125), rucaparib (NSC756644), sotorasib (NSC818433), MRTX-1133 (NSC836407), SN-38 (NSC673596), topotecan (NSC609699), epotoside (NSC141540), doxorubicin (NSC123127), gemcitabine (NSC613327), 5-fluorouracil (NSC19893), paclitaxel (NSC125973), vemurafenib (NSC761431), MSA-2 (NSC828583), SN-011 (NSC837082), adavosertib (NSC754352), prexasertib (NSC758257), carboplatin (NSC241240) and oxaliplatin (NSC266046), were obtained from the National Cancer Institute (NCI) Developmental Therapeutics Program Chemical Repository (21). The FDA-approved anticancer drug set is available from the Developmental Therapeutics Program at https://dtp.cancer.gov/organization/dscb/obtaining/. […] The stock solutions were prepared in dimethyl sulfoxide (DMSO, Sigma-Aldrich, St. Louis, MO, cat. D2650), except for the platinum compounds which were prepared in saline (Quality Biological, Gaithersburg, MD, cat. 114-055-101), at 800-fold the tested concentration and stored at -70 degrees C prior to their use. All drugs and investigational agents were tested over a range starting from a high concentration at or near the clinical Cmax and decreasing in half-log increments. If the clinical Cmax for an agent had not been determined, the highest concentration tested was 10 microM, except for SN-38, which was tested at a high concentration of 1 microM.
Cell Culture. All cells were maintained in an incubator at 37 degrees C and 5% CO2 with 95% humidity. The PDC lines were cultured according to standard operating procedures established by the NCI PDMR (https://pdmr.cancer.gov). Table 3 of the manuscript, lists the cell lines along with the number of the three cell types plated to form the mct-spheroids and media for tumor cell growth. After thawing, all PDC lines, except 997537-175-T-J1-PDC and 415267-285-R-J2-PDC, were cultured in Matrigel-coated flasks prepared with a working solution of 1X Ham's F-12 nutrient mix, without supplementation (Thermo Fisher Scientific, cat. 11765054), 100 U/mL penicillin-streptomycin (Thermo Fisher Scientific, cat. 15140122), and 2.5% Matrigel (Corning Inc., Corning, NY, cat. 354248) for the first three passages. The two PDC lines 997537-175-T-J1-PDC and 415267-285-R-J2-PDC were cultured on uncoated flasks. The 857933-349-R-J2-PDC line was cultured in 6C/Colon 1B media containing advanced DMEM/F-12 (Thermo Fisher Scientific, cat. 12634028), 10 mM HEPES (Thermo Fisher Scientific, cat. 15630080), 1X GlutaMAX supplement (Thermo Fisher Scientific, cat. 35050061), 0.1 mg/mL primocin (InvivoGen, San Diego, CA, cat. ant-pm-2), 10% defined fetal bovine serum, heat inactivated (HyClone Laboratories Inc., Logan, UT, cat. SH30070.03HI), 50% L-WRN conditioned media (ATCC, cat. CRL-3276), 1.25 mM N-Acetyl-L-cysteine (Sigma-Aldrich, cat. A9165), 10 mM nicotinamide (Sigma-Aldrich, cat. N0636), 1X B-27 supplement (Thermo Fisher Scientific, cat. 17504044), 1X N-2 supplement (Thermo Fisher Scientific, cat. […]

[1] = curve of first compound, second compound 0.0316 µM
[2] = curve of first compound, second compound 0.1 µM
[3] = curve of first compound, second compound 0.316 µM
[4] = curve of first compound, second compound 1 µM
[5] = curve of first compound, second compound 3.16 µM
[6] = curve of first compound, second compound 10 µM
[7] = second compound 0.0316 µM, first compound 0.00316 µM
[8] = second compound 0.0316 µM, first compound 0.01 µM
[9] = second compound 0.0316 µM, first compound 0.0316 µM
[10] = second compound 0.0316 µM, first compound 0.1 µM
[11] = second compound 0.1 µM, first compound 0.00316 µM
[12] = second compound 0.1 µM, first compound 0.01 µM
[13] = second compound 0.1 µM, first compound 0.0316 µM
[14] = second compound 0.1 µM, first compound 0.1 µM
[15] = second compound 0.316 µM, first compound 0.00316 µM
[16] = second compound 0.316 µM, first compound 0.01 µM
[17] = second compound 0.316 µM, first compound 0.0316 µM
[18] = second compound 0.316 µM, first compound 0.1 µM
[19] = second compound 1 µM, first compound 0.00316 µM
[20] = second compound 1 µM, first compound 0.01 µM
[21] = second compound 1 µM, first compound 0.0316 µM
[22] = second compound 1 µM, first compound 0.1 µM
[23] = second compound 3.16 µM, first compound 0.00316 µM
[24] = second compound 3.16 µM, first compound 0.01 µM
[25] = second compound 3.16 µM, first compound 0.0316 µM
[26] = second compound 3.16 µM, first compound 0.1 µM
[27] = second compound 10 µM, first compound 0.00316 µM
[28] = second compound 10 µM, first compound 0.01 µM
[29] = second compound 10 µM, first compound 0.0316 µM
[30] = second compound 10 µM, first compound 0.1 µM
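Also: spheroids exposed to compounds for seven days before readout.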
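For viability, T/C in this document: 100% = DMSO vehicle control viability.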

Question: Cn1ncnc1[C@H]1c2n[nH]c(=O)c3cc(F)cc(c23)N[C@@H]1c1ccc(F)cc1 + Cc1cccc(N(C)C(=O)C2C(O)CCN2c2nc(C)cc(C(F)(F)F)c2C#N)c1 was tested. Which IC50 [1] did it give?
Answer: > 0.1 µM

Question: What about the IC50 [2] of the same compound?
Answer: > 0.1 µM

Question: And the IC50 [3]?
Answer: > 0.1 µM

Question: What about the IC50 [4] of the same compound?
Answer: > 0.1 µM

Question: And the IC50 [5]?
Answer: > 0.1 µM

Question: What about the IC50 [6] of the same compound?
Answer: > 0.1 µM

Question: And the viability, T/C (second compound 0.0316 µM, first compound 0.000316 µM)?
Answer: 97.7%

Question: And the viability, T/C (second compound 0.0316 µM, first compound 0.001 µM)?
Answer: 103%

Question: What about the viability, T/C [7] of the same compound?
Answer: 97.5%

Question: What about the viability, T/C [8] of the same compound?
Answer: 99.2%

Question: And the viability, T/C [9]?
Answer: 90.8%

Question: And the viability, T/C [10]?
Answer: 93.4%

Question: What about the viability, T/C (second compound 0.1 µM, first compound 0.000316 µM) of the same compound?
Answer: 108%

Question: And the viability, T/C (second compound 0.1 µM, first compound 0.001 µM)?
Answer: 108%

Question: And the viability, T/C [11]?
Answer: 96%

Question: What about the viability, T/C [12] of the same compound?
Answer: 102%

Question: And the viability, T/C [13]?
Answer: 94.5%

Question: And the viability, T/C [14]?
Answer: 86.3%

Question: And the viability, T/C (second compound 0.316 µM, first compound 0.000316 µM)?
Answer: 105%

Question: What about the viability, T/C (second compound 0.316 µM, first compound 0.001 µM) of the same compound?
Answer: 107%

Question: What about the viability, T/C [15] of the same compound?
Answer: 99.6%

Question: And the viability, T/C [16]?
Answer: 99.5%

Question: What about the viability, T/C [17] of the same compound?
Answer: 92.7%

Question: What about the viability, T/C [18] of the same compound?
Answer: 93.4%

Question: And the viability, T/C (second compound 1 µM, first compound 0.000316 µM)?
Answer: 110%

Question: And the viability, T/C (second compound 1 µM, first compound 0.001 µM)?
Answer: 96.5%

Question: What about the viability, T/C [19] of the same compound?
Answer: 93.1%

Question: What about the viability, T/C [20] of the same compound?
Answer: 92.8%

Question: What about the viability, T/C [21] of the same compound?
Answer: 99.9%

Question: And the viability, T/C [22]?
Answer: 96.8%

Question: And the viability, T/C (second compound 3.16 µM, first compound 0.000316 µM)?
Answer: 93%

Question: And the viability, T/C (second compound 3.16 µM, first compound 0.001 µM)?
Answer: 103%

Question: What about the viability, T/C [23] of the same compound?
Answer: 103%

Question: And the viability, T/C [24]?
Answer: 91.9%

Question: What about the viability, T/C [25] of the same compound?
Answer: 101%

Question: And the viability, T/C [26]?
Answer: 87.5%

Question: What about the viability, T/C (second compound 10 µM, first compound 0.000316 µM) of the same compound?
Answer: 95.7%

Question: What about the viability, T/C (second compound 10 µM, first compound 0.001 µM) of the same compound?
Answer: 98.1%

Question: And the viability, T/C [27]?
Answer: 95.4%

Question: What about the viability, T/C [28] of the same compound?
Answer: 86.2%

Question: And the viability, T/C [29]?
Answer: 91.5%

Question: What about the viability, T/C [30] of the same compound?
Answer: 85.2%

Question: What does the source list for C=CCn1c(=O)c2cnc(Nc3ccc(N4CCN(C)CC4)cc3)nc2n1-c1cccc(C(C)(C)O)n1 + COC1C(OC(N)=O)C(O)C(Oc2ccc3c(O)c(NC(=O)c4ccc(O)c(CC=C(C)C)c4)c(=O)oc3c2C)OC1(C)C?
Answer: IC50 [1]: > 1 µM; IC50 [2]: > 1 µM; IC50 [3]: > 1 µM; IC50 [4]: > 1 µM; IC50 [5]: > 1 µM; IC50 [6]: > 1 µM; viability, T/C [7]: 98.7%; viability, T/C [8]: 104%; viability, T/C [9]: 102%; viability, T/C [10]: 101%; viability, T/C (second compound 0.0316 µM, first compound 0.316 µM): 96.1%; viability, T/C (second compound 0.0316 µM, first compound 1 µM): 80.7%; viability, T/C [11]: 112%; viability, T/C [12]: 106%; viability, T/C [13]: 102%; viability, T/C [14]: 102%; viability, T/C (second compound 0.1 µM, first compound 0.316 µM): 91%; viability, T/C (second compound 0.1 µM, first compound 1 µM): 79.1%; viability, T/C [15]: 102%; viability, T/C [16]: 102%; viability, T/C [17]: 105%; viability, T/C [18]: 101%; viability, T/C (second compound 0.316 µM, first compound 0.316 µM): 94.5%; viability, T/C (second compound 0.316 µM, first compound 1 µM): 86.3%; viability, T/C [19]: 106%; viability, T/C [20]: 104%; viability, T/C [21]: 100%; viability, T/C [22]: 97.3%; viability, T/C (second compound 1 µM, first compound 0.316 µM): 94.8%; viability, T/C (second compound 1 µM, first compound 1 µM): 76.3%; viability, T/C [23]: 101%; viability, T/C [24]: 101%; viability, T/C [25]: 97.2%; viability, T/C [26]: 94.6%; viability, T/C (second compound 3.16 µM, first compound 0.316 µM): 102%; viability, T/C (second compound 3.16 µM, first compound 1 µM): 85.6%; viability, T/C [27]: 100%; viability, T/C [28]: 93.8%; viability, T/C [29]: 97.9%; viability, T/C [30]: 109%; viability, T/C (second compound 10 µM, first compound 0.316 µM): 94.8%; viability, T/C (second compound 10 µM, first compound 1 µM): 72.2%

Question: Which results are given for O=C(c1cc(Cc2n[nH]c(=O)c3ccccc23)ccc1F)N1CCN(C(=O)C2CC2)CC1?
Answer: viability, T/C (compound 0.0316 µM): 88.1% and 67.6% and 87.6%; IC50 (curve of compound): > 10 µM
